# Data as given in patent US9833454B2, “Difluoromethoxy compound with low bioactivation potential for the reduction of beta-amyloid production” (BRISTOL-MYERS SQUIBB COMPANY, priority 2014, dated 2017).
# pIC50: −log10 of the molar value. Several values for one entry are separate records, joined by “and”; a condition that tells them apart may be missing. Equal values may be shown once.
# Target: CYP2D6 (Homo sapiens, UniProt P10635)
# Assay: biochemical
# Sequence of CYP2D6 (P10635 whole entry): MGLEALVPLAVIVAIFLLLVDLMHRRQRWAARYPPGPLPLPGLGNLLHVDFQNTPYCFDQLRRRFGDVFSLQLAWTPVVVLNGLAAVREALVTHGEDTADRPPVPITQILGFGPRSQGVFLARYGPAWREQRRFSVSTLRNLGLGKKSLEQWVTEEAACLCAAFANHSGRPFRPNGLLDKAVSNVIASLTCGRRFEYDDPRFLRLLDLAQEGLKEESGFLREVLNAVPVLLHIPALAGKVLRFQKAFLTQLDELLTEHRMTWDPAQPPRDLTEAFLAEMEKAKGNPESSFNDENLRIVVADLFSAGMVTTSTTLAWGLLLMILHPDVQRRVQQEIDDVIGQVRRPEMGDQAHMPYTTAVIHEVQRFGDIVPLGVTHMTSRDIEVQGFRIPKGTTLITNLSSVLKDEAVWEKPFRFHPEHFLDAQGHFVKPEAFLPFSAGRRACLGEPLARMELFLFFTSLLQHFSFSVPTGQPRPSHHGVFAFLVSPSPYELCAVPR
smiles,measurement,value
"COCC(=O)O[C@]1(CCN(C)CCCc2nc3ccccc3[nH]2)CCc2cc(F)ccc2[C@@H]1C(C)C [Mibefradil, reference compound]",pIC50,5.88 and 6.36
